Results taken from patent publication US20250326741A1, “GLUCOSE-DEPENDENT INSULINOTROPIC POLYPEPTIDE RECEPTOR ANTAGONISTS AND USES THEREOF” (Pfizer Inc., priority 2024, published 2025).

The compounds below were run against T1, human Glucose-dependent Insulinotropic Polypeptide Receptor (hGIPR) (Homo sapiens, UniProt P48546) (assay: Functional in vitro GIPR antagonist potency assay (intracellular cAMP, HTRF, hGIP stimulation at EC80)). Conditions: not given.
T1 sequence (P48546 22-466): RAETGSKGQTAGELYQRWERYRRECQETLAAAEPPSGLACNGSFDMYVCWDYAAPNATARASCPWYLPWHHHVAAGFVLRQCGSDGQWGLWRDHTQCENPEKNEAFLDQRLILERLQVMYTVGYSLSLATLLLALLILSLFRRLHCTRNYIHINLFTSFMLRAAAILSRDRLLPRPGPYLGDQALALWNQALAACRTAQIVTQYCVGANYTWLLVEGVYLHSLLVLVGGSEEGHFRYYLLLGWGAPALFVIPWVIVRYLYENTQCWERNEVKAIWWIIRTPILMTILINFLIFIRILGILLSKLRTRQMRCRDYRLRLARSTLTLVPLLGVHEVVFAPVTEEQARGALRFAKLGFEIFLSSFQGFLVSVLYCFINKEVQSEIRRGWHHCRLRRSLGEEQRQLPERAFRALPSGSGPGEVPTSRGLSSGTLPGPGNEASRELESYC
Assay type: cell-based
Description: Example AA. Functional In Vitro GIPR Antagonist Potency Assay
The functional in vitro antagonist potency for test compounds was determined by monitoring intracellular cyclic adenosine monophosphate (cAMP) levels in Chinese hamster ovary (CHO)—K1 cells stably expressing the human Glucose-dependent Insulinotropic Polypeptide Receptor (hGIPR). Following agonist activation, hGIPR associates with the G-protein complex causing the Gas subunit to exchange bound guanosine diphosphate (GDP) for guanosine triphosphate (GTP), followed by dissociation of the Gas-GTP complex. The activated Gas subunit can couple to downstream effectors to regulate the levels of second messengers or cAMP within the cell. Thereby, determination of intracellular cAMP levels allows for pharmacological characterization. Intracellular cAMP levels are quantitated using a homogenous assay utilizing the Homogeneous Time Resolved Fluorescence (HTRF) technology from Perkin Elmer. The method is a competitive immunoassay between native cAMP produced by the cells and cAMP labelled with the acceptor dye, d2. The two entities compete for binding to a monoclonal anti-cAMP antibody labeled with cryptate. The specific signal is inversely proportional to the concentration of cAMP in the cells.
Test compounds were solubilized to a concentration of 30 mM in 100% dimethyl sulfoxide (DMSO). An 11-point dilution series using 1 in 3.162-fold serial dilutions was created in 100% DMSO with a top concentration of 8 mM. The serially diluted compound was spotted with an Echo Acoustic liquid handler (Beckman Coulter) into a 384-well assay plate (Corning, Cat No. 3824) at 50 nL/well with duplicate points at each concentration, at a 200× final assay concentration (FAC). The final compound concentration range in the assay was 40 μM to […], with a final DMSO concentration of 0.5%.
Frozen assay-ready vials (at 1×10^7 cells/vial) of CHO-K1 cells stably expressing the Gs-coupled human GIPR receptor (Eurofins, DiscoverX, Cat No. 95-0146C2) were thawed, counted, and resuspended in assay buffer consisting of Hank's Balanced Salt Solution (HBSS, Lonza Cat No. 10-527) containing 20 mM (4-(2-hydroxyethyl)-1-piperazineethanesulfonic acid (HEPES, Lonza, Cat No. 17-737E), 0.1% bovine serum albumin (BSA, Sigma, Cat No. A7979), and 200 μM 3-isobutyl-1-methylxanthine (IBMX, Sigma, Cat No. 15879) at a density of 4×10^5 cells/mL. Cells were added to assay plate (5 μL/well of 4×10^5 cells/mL stock for 2,000 cells/well final) containing 50 nL of 200×FAC test compound, and incubated at 37° C. (95% O2: 5% CO2) for 2 hours, with micro-clime lids (Labcyte, Cat No. LLS-0310). Following the 2-hour cell and compound incubation, a stimulation mix comprised of hGIPR agonist human glucose-dependent insulinotropic polypeptide (hGIP, full length, Sigma Cat No. G2269) in assay buffer/0.1% DMSO was added to the assay plate (5 μL/well) at an estimated EC80 FAC (based on previous hGIP agonist curves) and incubated for another 30 minutes with micro-clime lids at 37° C. (95% O2: 5% CO2), after which intracellular cAMP levels were quantified as per Perkin Elmer's protocol (5 μL of d2 and then 5 μL cryptate, incubated for 1 hour at room temperature). Emission spectra of samples were measured on a Pherastar plate reader (BMG Labtech Inc) using a HTRF protocol (excitation, 320 nm; emission, 665 nm/620 nm).
(95% O2: 5% CO2), with a micro-clime lid. Following the 2-hour cell and DMSO incubation, a hGIP concentration response curve at 2×FAC (12-point curve using 1 in 3 serial dilutions, with triplicate points at each concentration, 100 nM final top concentration) in assay buffer/1% DMSO was added (5 μL/well) and incubated for a further 30 minutes with a micro-clime lid at 37° C. (95% O2: 5% CO2), after which intracellular cAMP levels were quantified and samples measured as described previously. Experiments passed quality control if the agonist concentration used for stimulation fell between the on-the-day EC50-EC90. […]
With `Cc1cc(-n2ccc(NC(=O)[C@H]3CCCN3C(=O)Nc3ccc(C(F)(F)F)c(F)c3)n2)ccc1C(=O)O` [Example 9, 4-{3-[(1-{[3-Fluoro-4-(trifluoromethyl)phenyl]carbamoyl}-D-prolyl)amino]-1H-pyrazol-1-yl}-2-methylbenzoic Acid] the IC50 was 19 nM.

Same assay, conditions: geometric mean; CHO-K1 cells stably expressing human GIPR, cAMP after hGIP stimulation at EC80
Compound `Cc1c(C(=O)O)ccc(-n2ccc(NC(=O)[C@H]3CCCN3C(=O)COc3ccc(OC(F)(F)F)cc3)n2)c1F` [Example 65, 3-fluoro-2-methyl-4-{3-[(1-{[4-(trifluoromethoxy)phenoxy]acetyl}-D-prolyl)amino]-1H-pyrazol-1-yl}benzoic acid] has an IC50 of 40 nM.
For `Cc1cc(NC(=O)N2CCC[C@@H]2C(=O)Nc2ccn(-c3ccc(C(=O)O)cc3)n2)ccc1C(F)(F)F` [Example 31, 4-{3-[(1-{[3-methyl-4-(trifluoromethyl)phenyl]carbamoyl}-D-prolyl)amino]-1H-pyrazol-1-yl}benzoic acid], the IC50 was 24 nM.
`Cc1cc(-n2ccc(NC(=O)[C@H]3CCCN3C(=O)Nc3ccc(C4CC4)c(C)c3)n2)ccc1C(=O)O` [Example 39, 4-[3-({1-[(4-cyclopropyl-3-methylphenyl)carbamoyl]-D-prolyl}amino)-1H-pyrazol-1-yl]-2-methylbenzoic acid] was tested, and the IC50 was 27 nM.
In the case of `CC(C)c1ccc(NC(=O)N2CCC[C@@H]2C(=O)Nc2ccn(-c3ccc(C(N)=O)cc3F)n2)cc1` [Example 36], the IC50 is reported as 42 nM.
`O=C(O)c1ccc(-n2ccc(NC(=O)[C@H]3CCCN3C(=O)Nc3ccc(C(F)(F)F)cc3)n2)cc1` [Example 23, 4-{3-[(1-{[4-(trifluoromethyl)phenyl]carbamoyl}-D-prolyl)amino]-1H-pyrazol-1-yl}benzoic acid] was tested, and the IC50 was 43 nM.
Compound `Cc1c(C(=O)O)ccc(-n2ccc(NC(=O)[C@H]3CCCN3C(=O)COc3ccc(C(F)(F)F)cc3)n2)c1F` [Example 64, 3-fluoro-2-methyl-4-{3-[(1-{[4-(trifluoromethyl)phenoxy]acetyl}-D-prolyl)amino]-1H-pyrazol-1-yl}benzoic acid] has an IC50 of 28 nM.
In the case of `Cc1cc(-n2ccc(NC(=O)[C@H]3CCCN3C(=O)Nc3ccc(C(F)(F)F)c(C)c3)n2)ccc1C(=O)O` [Example 38, 2-methyl-4-{3-[(1-{[3-methyl-4-(trifluoromethyl)phenyl]carbamoyl}-D-prolyl)amino]-1H-pyrazol-1-yl}benzoic acid], the IC50 is reported as 28 nM.
`CC(C)c1ccc(NC(=O)N2CCC[C@@H]2C(=O)Nc2ccn(-c3ccc(C(=O)O)cc3)n2)cc1` [Example 22, 4-{3-[(1-{[4-(propan-2-yl)phenyl]carbamoyl}-D-prolyl)amino]-1H-pyrazol-1-yl}benzoic acid] was tested, and the IC50 was 22 nM.
Compound `CC(C)c1ccc(NC(=O)N2CCC[C@@H]2C(=O)Nc2ccn(-c3ccc(C(=O)O)cc3F)n2)cc1` [Example 24, 3-fluoro-4-{3-[(1-{[4-(propan-2-yl)phenyl]carbamoyl}-D-prolyl)amino]-1H-pyrazol-1-yl}benzoic acid] has an IC50 of 15 nM.
With `Cc1cc(-n2ccc(NC(=O)[C@H]3CCCN3C(=O)NCc3ccc(C4CC4)cc3)n2)ccc1C(=O)O` [Example 47, 4-{3-[(1-{[(4-cyclopropylphenyl)methyl]carbamoyl}-D-prolyl)amino]-1H-pyrazol-1-yl}-2-methylbenzoic acid] the IC50 was 220 nM.
`Cc1cc(-n2ccc(NC(=O)[C@H]3CCCN3C(=O)Nc3ccc(C(C)C)cc3)n2)c(F)cc1C(=O)O` [Example 50, 5-fluoro-2-methyl-4-{3-[(1-{[4-(propan-2-yl)phenyl]carbamoyl}-D-prolyl)amino]-1H-pyrazol-1-yl}benzoic acid] showed an IC50 of 21 nM.
Work on `Cc1cc(-n2ccc(NC(=O)[C@H]3CCCN3C(=O)COc3ccc(OC(F)(F)F)cc3)n2)ccc1C(=O)O` [Example 63, 2-methyl-4-{3-[(1-{[4-(trifluoromethoxy)phenoxy]acetyl}-D-prolyl)amino]-1H-pyrazol-1-yl}benzoic acid] yielded an IC50 of 46 nM.
